Test results taken from ChEMBL document CHEMBL4422646, “Synthesis and biological evaluation of 3-amino-, 3-alkoxy- and 3-aryloxy-6-(hetero)arylpyridazines as potent antitumor agents” (Bioorg Med Chem Lett, 2019).
pIC50: −log10 of the molar value. The source made the active and inactive calls. The calls are words filed in the database; no cut-off is given here.

Tests used:
[1] = test system: HCT-116; assay: Antiproliferative activity against human HCT116 cells after 48 hrs by Hoechst 33342 staining-based assay; type: functional, cell-based; settings: HCT-116, 48 h
[2] = test system: PC-3; assay: Antiproliferative activity against human PC3 cells after 48 hrs by Hoechst 33342 staining-based assay; type: functional, cell-based; settings: PC-3, 48 h
[3] = test system: NCI-H727; assay: Antiproliferative activity against human NCI-H727 cells after 48 hrs by Hoechst 33342 staining-based assay; type: functional, cell-based; settings: NCI-H727, 48 h
[4] = test system: Huh-7; assay: Antiproliferative activity against human HuH7 cells after 48 hrs by Hoechst 33342 staining-based assay; type: functional, cell-based; settings: Huh-7, 48 h
[5] = biological target: Mitogen-activated protein kinase; ERK1/ERK2 (Homo sapiens) (UniProt P27361+P28482); assay: Inhibition of EGF-stimulated p44/42 phosphorylation in human MDA-MB-468-Luc cells at 10^-5 M pre-incubated for 1 hr before EGF stimulation for 15 mins by Western blot analysis relative to control; type: cell-based
[6] = test system: Caco-2; assay: Antiproliferative activity against human Caco2 cells after 48 hrs by Hoechst 33342 staining-based assay; type: functional, cell-based; settings: Caco-2, 48 h
[7] = test system: MDA-MB-231; assay: Antiproliferative activity against human MDA-MB-231 cells at 0.1 to 25 uM after 48 hrs by Hoechst 33342 staining-based assay relative to control; type: functional
[8] = test system: HCT-116; assay: Antiproliferative activity against human HCT116 cells at 0.1 to 25 uM after 48 hrs by Hoechst 33342 staining-based assay relative to control; type: functional
[9] = test system: Huh-7; assay: Antiproliferative activity against human HuH7 cells at 0.1 to 25 uM after 48 hrs by Hoechst 33342 staining-based assay relative to control; type: functional
[10] = test system: NCI-H727; assay: Antiproliferative activity against human NCI-H727 cells at 0.1 to 25 uM after 48 hrs by Hoechst 33342 staining-based assay relative to control; type: functional
[11] = test system: HaCaT; assay: Antiproliferative activity against human HaCaT cells at 0.1 to 25 uM after 48 hrs by Hoechst 33342 staining-based assay relative to control; type: cell-based
[12] = test system: MDA-MB-231; assay: Antiproliferative activity against human MDA-MB-231 cells after 48 hrs by Hoechst 33342 staining-based assay; type: functional, cell-based; settings: MDA-MB-231, 48 h
[13] = test system: Fibroblast; assay: Antiproliferative activity against human fibroblast cells after 48 hrs by Hoechst 33342 staining-based assay; type: cell-based
[14] = test system: MDA-MB-468; assay: Anticlonogenic activity against human MDA-MB-468 cells harboring luciferase reporter gene after 2 weeks by Giemsa staining-based assay; type: functional, cell-based; settings: MDA-MB-468, 336 h
[15] = test system: HaCaT; assay: Antiproliferative activity against human HaCaT cells after 48 hrs by Hoechst 33342 staining-based assay; type: cell-based
[16] = Toxicity in zebrafish embryos at 2.5 uM after 72 hrs; design: species or system Danio rerio; settings: in vivo
[17] = Toxicity in zebrafish embryos assessed as effect on embryo mobility at 0.8 uM after 72 hrs; design: species or system Danio rerio; settings: in vivo
[18] = test system: Fibroblast; assay: Antiproliferative activity against human fibroblast cells at 0.1 to 25 uM after 48 hrs by Hoechst 33342 staining-based assay relative to control; type: cell-based
[19] = test system: HepaRG; assay: Hepatotoxicity in human HepaRG cells at 2.5 uM after 48 hrs; type: toxicity, cell-based
[20] = biological target: RAC-alpha serine/threonine-protein kinase (Homo sapiens) (UniProt P31749); assay: Inhibition of EGF-stimulated Akt phosphorylation in human MDA-MB-468-Luc cells at 10^-5 M pre-incubated for 1 hr before EGF stimulation for 15 mins by Western blot analysis relative to control; type: cell-based
[21] = Toxicity in zebrafish embryos assessed as alive embryo at 0.8 uM after 72 hrs; design: species or system Danio rerio; settings: in vivo
[22] = test system: PC-3; assay: Antiproliferative activity against human PC3 cells at 0.1 to 25 uM after 48 hrs by Hoechst 33342 staining-based assay relative to control; type: functional
[23] = Toxicity in zebrafish embryos assessed as effect on embryo development at 0.8 uM after 72 hrs; design: species or system Danio rerio; settings: in vivo
[24] = Toxicity in zebrafish embryos assessed as reduction in eye size at 0.8 uM after 72 hrs; design: species or system Danio rerio; settings: in vivo
[25] = Toxicity in zebrafish embryos assessed as reduction in eye size at 2.5 uM after 72 hrs; design: species or system Danio rerio; settings: in vivo

Sequence of Mitogen-activated protein kinase; ERK1/ERK2 (Homo sapiens) (P27361 whole entry, looked up): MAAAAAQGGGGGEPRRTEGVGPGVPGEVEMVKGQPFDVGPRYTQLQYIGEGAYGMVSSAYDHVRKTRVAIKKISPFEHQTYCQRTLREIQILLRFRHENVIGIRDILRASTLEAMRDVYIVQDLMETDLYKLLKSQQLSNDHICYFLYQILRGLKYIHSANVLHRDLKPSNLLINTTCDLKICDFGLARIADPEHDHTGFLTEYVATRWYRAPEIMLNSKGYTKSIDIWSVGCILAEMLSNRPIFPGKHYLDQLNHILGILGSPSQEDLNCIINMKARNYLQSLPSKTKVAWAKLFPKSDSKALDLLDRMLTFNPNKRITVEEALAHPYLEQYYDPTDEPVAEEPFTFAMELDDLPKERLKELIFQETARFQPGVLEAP
Sequence of Mitogen-activated protein kinase; ERK1/ERK2 (Homo sapiens) (P28482 whole entry, looked up): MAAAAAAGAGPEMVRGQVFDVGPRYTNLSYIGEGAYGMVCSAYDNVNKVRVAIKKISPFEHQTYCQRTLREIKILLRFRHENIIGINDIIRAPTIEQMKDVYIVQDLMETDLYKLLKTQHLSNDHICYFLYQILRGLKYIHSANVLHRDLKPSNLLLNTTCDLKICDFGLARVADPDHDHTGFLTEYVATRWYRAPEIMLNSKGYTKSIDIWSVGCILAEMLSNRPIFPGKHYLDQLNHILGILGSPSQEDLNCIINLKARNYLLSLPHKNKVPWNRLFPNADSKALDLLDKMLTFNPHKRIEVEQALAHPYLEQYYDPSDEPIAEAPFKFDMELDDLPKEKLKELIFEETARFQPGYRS
Sequence of RAC-alpha serine/threonine-protein kinase (Homo sapiens) (P31749 whole entry): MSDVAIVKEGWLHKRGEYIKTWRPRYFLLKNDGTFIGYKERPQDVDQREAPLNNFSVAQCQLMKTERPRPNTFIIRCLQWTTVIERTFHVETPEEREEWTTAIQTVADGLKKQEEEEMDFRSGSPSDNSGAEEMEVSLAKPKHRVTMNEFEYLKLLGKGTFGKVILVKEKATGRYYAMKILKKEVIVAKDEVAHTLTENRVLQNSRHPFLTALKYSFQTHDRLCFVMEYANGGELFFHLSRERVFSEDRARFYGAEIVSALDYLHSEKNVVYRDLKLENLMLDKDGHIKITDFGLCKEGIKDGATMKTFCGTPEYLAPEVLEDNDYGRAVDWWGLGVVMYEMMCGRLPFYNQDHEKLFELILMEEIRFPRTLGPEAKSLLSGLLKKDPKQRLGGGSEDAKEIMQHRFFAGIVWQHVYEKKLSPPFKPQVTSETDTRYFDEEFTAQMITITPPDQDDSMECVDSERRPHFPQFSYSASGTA

SMILES	pIC50 [1]	pIC50 [2]	pIC50 [3]	pIC50 [4]	inhibition [5]	pIC50 [6]	Activity [7]	Activity [8]	Activity [9]	Activity [10]	Activity [11]	pIC50 [12]	pIC50 [13]	pIC50 [14]	pIC50 [15]	Activity [18]	inhibition [20]	Activity [22]	also measured
CCN(CC)c1ccc(-c2ccc(C(C)=O)cc2)nn1	5.22	< 4.60	4.60	4.60	< 50%	4.82	60%	100%	80%	80%	80%	5.30	< 4.60	6.19	4.70	–	–	–	–
CCOC(=O)c1ccc(-c2ccc(N(CC)CC)nn2)cc1	6.30	6.00	5.82	5.05	70%	5.40	70%	90%	60%	60%	80%	5.82	5.52	6.92	6.30	40%	Active	80%	Activity [16]: Toxic; Activity [17]: Non-Toxic; Activity [19]: Non-Toxic; Activity [21]: Non-Toxic; Activity [23]: Non-Toxic
COC(=O)c1ccc(-c2ccc(N(C)C)nn2)cc1	< 4.60	< 4.60	< 4.60	< 4.60	inactive	< 4.60	–	–	–	–	–	< 4.60	< 4.60	5.46	–	–	inactive	–	–
CC(=O)O[C@H]1C(=O)[C@@]2(C)[C@H]([C@H](OC(=O)c3ccccc3)[C@]3(O)C[C@H](OC(=O)[C@H](O)[C@@H](NC(=O)c4ccccc4)c4ccccc4)C(C)=C1C3(C)C)[C@]1(OC(C)=O)CO[C@@H]1C[C@@H]2O [PACLITAXEL]	> 9.00	> 9.00	–	7.92	–	–	60%	90%	50%	–	70%	7.22	> 9.00	–	8.70	30%	–	60%	–
CCOC(=O)c1cccc(-c2ccc(N(CC)CC)nn2)c1	< 4.60	< 4.60	4.52	< 4.60	–	< 4.60	–	–	–	40%	–	< 4.60	< 4.60	–	< 4.60	–	–	–	–
CCOC(=O)c1ccc(-c2ccc(N(C)C)nn2)cc1	< 4.60	< 4.60	< 4.60	< 4.60	inactive	< 4.60	–	–	–	–	–	< 4.60	< 4.60	4.59	–	–	inactive	–	–
CC[C@H](CO)Nc1nc(NCc2ccccc2)c2ncn(C(C)C)c2n1 [SELICICLIB]	5.05	4.92	–	4.70	–	–	80%	100%	90%	40%	80%	–	4.92	–	4.92	40%	–	8%	–
COc1cccc2c1C(=O)c1c(O)c3c(c(O)c1C2=O)C[C@@](O)(C(=O)CO)C[C@@H]3O[C@H]1C[C@H](N)[C@H](O)[C@H](C)O1 [DOXORUBICIN]	7.30	7.10	7.52	7.52	–	7.05	50%	80%	40%	60%	70%	7.92	8.30	–	7.52	40%	–	80%	–
CCN(CC)c1ccc(-c2ccc(C(=O)OC)cc2)nn1	7.22	7.05	7.05	7.05	70%	6.60	60%	100%	60%	60%	85%	6.85	7.00	7.82	7.10	40%	> 70%	72%	Activity [16]: Toxic; Activity [17]: Non-Toxic; Activity [24]: Non-Toxic; Activity [19]: Non-Toxic; Activity [21]: Non-Toxic; Activity [25]: Toxic; Activity [23]: Non-Toxic
